Reference: patent publication US20140294856A1, “COMBINATION TREATMENT COMPRISING A HDAC6 INHIBITOR AND AN AKT INHIBITOR” (priority 2011, published 2014)
Values after ≈ are worked out from the molar mass of the structure shown. Like-named read-outs stand apart in the source and are kept apart here.

Legend:
[1] = biological target: HDAC6 (Homo sapiens, UniProt Q9UBN7); experiment: Enzyme inhibition activity, Fluor-de-Lys kit; assay type: biochemical
Description: FIG. 20 (Table 1): Enzyme inhibition activity using HeLa nuclear extract and the Fluor-de-Lys kit.
HSP90 protein expression was not altered (FIG. 2).

[2] = system: SH-SY5Y; experiment: Growth inhibition, SRB assay, 72 hours; assay type: cell-based; details: SH-SY5Y neuroblastoma
[3] = system: HCT116 xenograft; experiment: [18F]FLT-PET tumour uptake; assay type: in vivo, mice
Protocol: FIG. 6. [18F]-FLT uptake at 24 h and 48 h following a single injection I.P. of HDAC-C1A at 40 mg/kg in HCT116 xenograft model. A. PET/CT (bottom) and corresponding CT (top) images of the [18]-FLT uptake. […] The tumour is indicated by an arrow. B. Area under the curve data. The results are the mean+/−SEM of at least 4 animals per group.
FIG. 13. […] A. relative tumour volume to day 1. […] B. Corresponding body weights throughout the course of the experiment. […] C. Time activity curve represent [18F]FLT uptake over 60 minutes. Results are mean of at least 3 animals. D. Area under the curve, [18F]FLT uptake in the tumour over 60 minutes. E. NUV60, [18F]FLT uptake in the tumour at 60 minutes. […] The levels of total AKT are represented as loading control.
FIG. 16. [18F]FLT uptake following treatment with BEZ235 and in combination with HDAC-C1A after 48 hours in a HCT116 xenograft model. Mice were treated with either BEZ235 alone at 20 mg/kg/day for 2 days P.O., with 1HDACC1A at 20 mg/kg/day for 2 days I.P. or with a combination HDAC-C1A (20 mg/kg/day for 1 or 2 days)+BEZ-235 (20 mg/kg/day for 1 or 2 days). BEZ235 was given first and 30 min later, mice received an injection of HDAC-C1A. A. time activity curve represent [18F]FLT uptake over 60 minutes. Results are mean of at least 3 animals. B. Area under the curve, [18F]FLT uptake in the tumour over 60 minutes. C. NUV60, [18F]FLT uptake in the tumour at 60 minutes. D. Cross section (axial plane) of mice representative of different treatment cohorts. The top pictures show [18F]FLT uptake pictures (PET/CT), the bottom represent the corresponding CT scan. The arrows point the tumour.
We also assessed the potential of [^18F]fluorothymidine positron emission tomography ([^18F]FLT-PET) to measure early response to HDAC-C1A treatment in HCT116 xenograft bearing mice (FIG. 6). There was a 2-fold decrease in tumour [^18F]FLT uptake in animals treated continuously for 48 h compared to vehicle treated controls; the area under the normalized [^18F]FLT time versus activity curve was 117±6.9 before treatment and decreased to 106±5.5 (P=0.02) at 24 hours and 54±5 (P=0.0001) at 48 hours after initiating treatment (FIG. 6.B).
The efficacy of the combination HDAC-C1A (20 mg/kg/day) and BEZ235 ([…]) could be monitored with [^18F]FLT-PET in HCT116 tumour bearing mice as early as 24H-48H. There was a 1.7-fold decrease in tumour [^18F]FLT uptake in animals treated continuously for 24 h-48 h compared to vehicle treated controls; the area under the normalized [^18F]FLT time versus activity curve was 542±17 before treatment and decreased to 312±22 (P=0.0002) at 24-48 hours after initiating treatment (FIG. 16.B).

[4] = system: HCT116 xenograft; experiment: Differential gene expression, affymetrix human genome array; assay type: in vivo, mice
[5] = system: ABC transporters; experiment: Expression of ABC transporters (protein and mRNA) in tumours; assay type: in vivo, mice; details: 14 days of treatment
[6] = system: A549 cells; experiment: Impact of BSO (GSH depletion) on growth inhibition, SRB assay; assay type: cell-based; details: 10 μM BSO for 24 hours
[7] = system: HCT116 human colon cancer xenograft
[8] = biological target: MRP1 (Homo sapiens, UniProt P33527); experiment: Impact of MRP1 on cytotoxicity, MK-571 pre-treatment in A549 cells
Sequence of MRP1 (P33527 whole entry): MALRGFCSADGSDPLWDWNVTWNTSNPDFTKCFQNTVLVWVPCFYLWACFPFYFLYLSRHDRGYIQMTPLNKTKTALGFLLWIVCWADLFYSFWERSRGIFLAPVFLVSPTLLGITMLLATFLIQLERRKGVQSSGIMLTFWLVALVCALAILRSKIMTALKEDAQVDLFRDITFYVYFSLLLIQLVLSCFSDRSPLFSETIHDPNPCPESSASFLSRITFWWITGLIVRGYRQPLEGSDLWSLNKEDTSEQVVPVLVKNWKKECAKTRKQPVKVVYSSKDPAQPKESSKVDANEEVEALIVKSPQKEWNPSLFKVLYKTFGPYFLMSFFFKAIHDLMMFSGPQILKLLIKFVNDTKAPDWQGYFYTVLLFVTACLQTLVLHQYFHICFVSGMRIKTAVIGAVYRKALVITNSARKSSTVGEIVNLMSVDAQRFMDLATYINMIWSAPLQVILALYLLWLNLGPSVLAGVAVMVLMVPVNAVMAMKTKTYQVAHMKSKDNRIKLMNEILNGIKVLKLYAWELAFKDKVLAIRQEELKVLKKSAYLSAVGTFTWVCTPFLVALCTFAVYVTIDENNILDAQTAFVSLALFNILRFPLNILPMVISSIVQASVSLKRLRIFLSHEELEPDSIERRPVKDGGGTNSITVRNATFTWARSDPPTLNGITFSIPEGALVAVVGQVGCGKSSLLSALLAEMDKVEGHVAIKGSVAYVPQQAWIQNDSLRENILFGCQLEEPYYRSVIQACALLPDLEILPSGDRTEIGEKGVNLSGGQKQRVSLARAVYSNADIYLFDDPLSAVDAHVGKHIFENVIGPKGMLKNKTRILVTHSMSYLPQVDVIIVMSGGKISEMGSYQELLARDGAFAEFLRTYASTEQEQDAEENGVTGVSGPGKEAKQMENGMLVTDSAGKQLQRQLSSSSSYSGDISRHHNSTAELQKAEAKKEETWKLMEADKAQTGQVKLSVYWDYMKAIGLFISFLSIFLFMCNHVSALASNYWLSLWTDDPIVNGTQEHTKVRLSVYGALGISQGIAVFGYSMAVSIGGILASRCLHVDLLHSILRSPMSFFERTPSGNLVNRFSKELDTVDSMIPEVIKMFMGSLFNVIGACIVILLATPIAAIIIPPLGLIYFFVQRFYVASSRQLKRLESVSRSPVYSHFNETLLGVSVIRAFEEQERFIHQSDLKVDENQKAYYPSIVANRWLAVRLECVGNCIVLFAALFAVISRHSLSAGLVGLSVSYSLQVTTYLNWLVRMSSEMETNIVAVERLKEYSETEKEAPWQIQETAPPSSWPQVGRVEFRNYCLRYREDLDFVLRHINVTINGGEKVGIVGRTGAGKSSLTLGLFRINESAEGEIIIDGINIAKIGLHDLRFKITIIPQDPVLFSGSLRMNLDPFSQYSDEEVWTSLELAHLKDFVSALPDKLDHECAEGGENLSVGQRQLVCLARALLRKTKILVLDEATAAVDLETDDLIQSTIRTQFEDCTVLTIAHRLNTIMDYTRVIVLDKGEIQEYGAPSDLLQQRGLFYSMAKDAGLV
Protocol: The impact of ABC transporters on the cytotoxicity of HDAC-C1A was assessed using cell lines with differential expression of the ABC transporters and by using inhibitors.

[9] = biological target: P-gp (Homo sapiens, UniProt P08183)
Sequence of P-gp (P08183 whole entry): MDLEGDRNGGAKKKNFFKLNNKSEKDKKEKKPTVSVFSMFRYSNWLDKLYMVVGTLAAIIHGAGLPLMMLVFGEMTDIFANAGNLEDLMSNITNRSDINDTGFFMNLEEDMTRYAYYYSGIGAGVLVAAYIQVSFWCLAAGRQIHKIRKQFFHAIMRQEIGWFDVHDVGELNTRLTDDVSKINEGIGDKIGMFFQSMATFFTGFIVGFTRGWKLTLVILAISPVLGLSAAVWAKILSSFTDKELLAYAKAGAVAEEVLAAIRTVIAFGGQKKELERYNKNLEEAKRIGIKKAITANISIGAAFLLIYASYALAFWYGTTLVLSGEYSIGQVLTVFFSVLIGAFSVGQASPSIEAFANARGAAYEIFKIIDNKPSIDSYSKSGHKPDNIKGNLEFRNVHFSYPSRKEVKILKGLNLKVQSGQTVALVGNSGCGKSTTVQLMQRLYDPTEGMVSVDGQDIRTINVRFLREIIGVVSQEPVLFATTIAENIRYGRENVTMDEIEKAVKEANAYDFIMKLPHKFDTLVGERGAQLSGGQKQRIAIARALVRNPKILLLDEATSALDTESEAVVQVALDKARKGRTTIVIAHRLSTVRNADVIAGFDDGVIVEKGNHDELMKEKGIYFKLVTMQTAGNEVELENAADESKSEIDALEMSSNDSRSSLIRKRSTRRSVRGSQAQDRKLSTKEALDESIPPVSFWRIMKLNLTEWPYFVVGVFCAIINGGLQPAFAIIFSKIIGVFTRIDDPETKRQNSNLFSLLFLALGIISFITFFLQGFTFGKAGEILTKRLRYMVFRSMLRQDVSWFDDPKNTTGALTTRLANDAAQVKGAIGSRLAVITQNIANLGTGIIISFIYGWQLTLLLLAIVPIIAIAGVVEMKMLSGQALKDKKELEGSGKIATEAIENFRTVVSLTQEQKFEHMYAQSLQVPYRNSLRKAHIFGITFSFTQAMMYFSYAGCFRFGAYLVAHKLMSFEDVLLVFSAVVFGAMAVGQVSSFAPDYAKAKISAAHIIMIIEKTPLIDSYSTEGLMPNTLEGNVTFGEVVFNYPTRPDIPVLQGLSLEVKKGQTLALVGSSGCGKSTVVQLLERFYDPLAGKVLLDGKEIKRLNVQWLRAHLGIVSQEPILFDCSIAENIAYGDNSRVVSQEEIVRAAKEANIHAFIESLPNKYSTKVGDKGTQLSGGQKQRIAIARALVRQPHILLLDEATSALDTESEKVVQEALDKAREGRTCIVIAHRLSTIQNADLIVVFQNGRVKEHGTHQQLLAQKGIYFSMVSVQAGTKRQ

[10] = 14 days, 40 mg/kg every other day
[11] = HDAC-C1A 20 mg/kg bid combined with API-2 1 mg/kg/d
[12] = HDAC-C1A combined with BEZ-235 20 mg/kg/day, given 8 hours apart

Sequence of HDAC6 (Q9UBN7 whole entry): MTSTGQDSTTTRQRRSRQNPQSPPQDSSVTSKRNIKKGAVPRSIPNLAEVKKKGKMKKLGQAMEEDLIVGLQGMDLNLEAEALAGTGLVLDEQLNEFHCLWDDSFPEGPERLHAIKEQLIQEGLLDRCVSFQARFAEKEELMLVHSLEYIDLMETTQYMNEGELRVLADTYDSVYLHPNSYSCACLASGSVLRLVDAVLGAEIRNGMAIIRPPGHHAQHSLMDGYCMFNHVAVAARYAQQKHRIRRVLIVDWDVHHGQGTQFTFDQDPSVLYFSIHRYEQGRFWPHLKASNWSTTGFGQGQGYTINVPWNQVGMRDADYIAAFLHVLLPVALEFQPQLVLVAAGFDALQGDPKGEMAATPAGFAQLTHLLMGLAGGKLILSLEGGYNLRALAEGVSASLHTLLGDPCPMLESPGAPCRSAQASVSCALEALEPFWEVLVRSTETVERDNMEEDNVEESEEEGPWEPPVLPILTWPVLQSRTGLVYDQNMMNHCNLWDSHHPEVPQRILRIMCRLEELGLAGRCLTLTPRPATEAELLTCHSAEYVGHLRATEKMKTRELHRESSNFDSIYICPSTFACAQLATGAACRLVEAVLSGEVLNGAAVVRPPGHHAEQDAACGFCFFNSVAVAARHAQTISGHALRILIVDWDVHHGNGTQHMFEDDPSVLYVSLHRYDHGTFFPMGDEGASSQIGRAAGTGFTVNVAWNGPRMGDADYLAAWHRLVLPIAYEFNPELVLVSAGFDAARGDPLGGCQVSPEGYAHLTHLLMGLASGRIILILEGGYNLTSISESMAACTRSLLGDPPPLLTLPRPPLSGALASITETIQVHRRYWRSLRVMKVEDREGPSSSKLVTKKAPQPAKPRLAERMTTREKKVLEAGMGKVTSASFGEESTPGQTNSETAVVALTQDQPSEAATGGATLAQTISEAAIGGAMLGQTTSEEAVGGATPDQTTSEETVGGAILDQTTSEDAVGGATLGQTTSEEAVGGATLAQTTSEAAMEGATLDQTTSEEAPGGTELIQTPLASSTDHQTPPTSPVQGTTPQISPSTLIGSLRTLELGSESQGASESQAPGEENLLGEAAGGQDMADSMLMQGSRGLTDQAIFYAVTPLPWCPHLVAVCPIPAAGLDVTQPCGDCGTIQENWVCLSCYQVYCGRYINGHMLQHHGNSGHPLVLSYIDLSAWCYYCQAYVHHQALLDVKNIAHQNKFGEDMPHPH

## CC(/C=C/C(=O)NO)=C\c1ccc(NS(=O)(=O)c2ccc(N(CCCl)CCCl)cc2)cc1 [HDAC-C1A]
[1]
  IC50 for HDAC6: 0.063 mg/L
[2]
  GI50: 0.09 mg/L (≈ 0.181 µM)
[3]; 48 H, HDAC-C1A 40 mg/kg combined with API-2 1 mg/kg
  [18F]FLT-PET in comparison to control animals: unremarkable
[3]; 24 hours after initiating treatment, 117±6.9 before treatment
  area under the normalized [18F]FLT time versus activity curve: 106±5.5
[3]; 48 hours after initiating treatment, 117±6.9 before treatment
  area under the normalized [18F]FLT time versus activity curve: 54±5
[3]; HDAC-C1A 20 mg/kg/day combined with BEZ235 25 mg/kg/day, 24 h-48 h
  fold decrease in tumour [18F]FLT uptake vs vehicle: 1.7 fold
[3]; HDAC-C1A combined with BEZ235, 24-48 hours, 542±17 before treatment
  area under the normalized [18F]FLT time versus activity curve: 312±22
[3]; treated continuously for 48 h, 40 mg/kg
  fold decrease in tumour [18F]FLT uptake vs vehicle: 2 fold
[4]; 24 hours, 40 mg/kg
  number of genes deregulated (of 20 000 tested): 20 genes
  number of genes up-regulated: 17
[4]; 14 days of treatment
  ALDH1 up-regulation: ~1.6 fold
  Gasdermin D up-regulation: ~1.5 fold
  K AZ up-regulation: ~1.5 fold
  KLK3 down-regulation: ~1.5 fold
  RAD23B up-regulation: ~1.8 fold
  SYNDECAN-2 down-regulation: ~1.7 fold
  UNG up-regulation: ~1.7 fold
[4]; [10]
  number of genes deregulated by at least 1.5 fold: 132 genes
  share of genes deregulated: < 0.7%
[4]; after 1 and 14 days
  mRNA levels of PTEN vs vehicle: not altered
[5]
  expression of ABC transporters vs vehicle: No difference
[6]
  impact of BSO on growth inhibition (GI50 ratio): No difference
[7]; [11]
  TGD2x: 2.7 ± 1.3 days
  TGI compared with vehicle: 54%
[7]; HDAC-C1A alone 20 mg/kg/day
  TGD2x: 3.8 ± 1.3 days
  TGI: 69%
[7]; [12]
  TGD2x: 8.2 ± 1.3 days
  TGI: 74%
[7]; HDAC-C1A combined with BEZ-235, given 30 minutes apart
  TGI: 115%
[7]; i.p. 20 mg/kg b.i.d.
  TGD2x: 5.7 ± 1.4 days
  TGI compared with vehicle: 78%
  toxicity (body weight): non-toxic
[8]
  substrate of MRP1: non-substrates
[9]
  fold resistance (GI50 ratio) P-gp over-expressing 3T3 vs parental: 17 fold
